Columns and labels:
[1] = biological target: T1, Organic anion transporter 3 (OAT3) (Rattus norvegicus, UniProt Q9R1U7); assay: TP_TRANSPORTER: inhibition of Indoxyl sulfate uptake (Indoxyl sulfate: 2 uM, 5-Methoxytryptophol: 1000 uM) in Xenopus laevis oocytes; format: functional, cell-based, Oocyte; parameters: scale not given: the % may be the effect or the level left; settings: probe Indoxyl sulfate, read-out: Activity
T1 sequence (Q9R1U7 whole entry): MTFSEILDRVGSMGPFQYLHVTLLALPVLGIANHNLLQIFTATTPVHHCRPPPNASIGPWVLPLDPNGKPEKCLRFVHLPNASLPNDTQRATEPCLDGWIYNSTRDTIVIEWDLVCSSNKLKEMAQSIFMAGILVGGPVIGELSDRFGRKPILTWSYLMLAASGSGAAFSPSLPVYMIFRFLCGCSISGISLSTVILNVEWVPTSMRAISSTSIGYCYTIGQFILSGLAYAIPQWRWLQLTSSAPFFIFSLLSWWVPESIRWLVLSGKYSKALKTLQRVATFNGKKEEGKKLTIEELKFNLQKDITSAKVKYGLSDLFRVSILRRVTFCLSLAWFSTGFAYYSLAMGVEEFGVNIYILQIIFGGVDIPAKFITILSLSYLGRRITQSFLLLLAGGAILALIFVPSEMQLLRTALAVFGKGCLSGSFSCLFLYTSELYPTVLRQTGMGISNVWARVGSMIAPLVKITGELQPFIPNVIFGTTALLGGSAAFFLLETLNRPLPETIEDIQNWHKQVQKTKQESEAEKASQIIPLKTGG

[2] = biological target: T1, Organic anion transporter 3 (OAT3); assay: TP_TRANSPORTER: inhibition of Indoxyl sulfate uptake (Indoxyl sulfate: 2 uM, 3-Methoxy-4-hydroxymandelic acid: 1000 uM) in Xenopus laevis oocytes; format: functional, cell-based, Oocyte; parameters: scale not given: the % may be the effect or the level left; settings: probe Indoxyl sulfate, read-out: Activity
[3] = biological target: T1, Organic anion transporter 3 (OAT3); assay: TP_TRANSPORTER: inhibition of Indoxyl sulfate uptake (Indoxyl sulfate: 2 uM, 3,4-Dihydroxymandelic acid: 1000 uM) in Xenopus laevis oocytes; format: functional, cell-based, Oocyte; parameters: scale not given: the % may be the effect or the level left; settings: probe Indoxyl sulfate, read-out: Activity
[4] = biological target: T1, Organic anion transporter 3 (OAT3); assay: TP_TRANSPORTER: inhibition of Indoxyl sulfate uptake (Indoxyl sulfate: 2 uM, 5-Hydroxyindole acetic acid: 1000 uM) in Xenopus laevis oocytes; format: functional, cell-based, Oocyte; parameters: scale not given: the % may be the effect or the level left; settings: probe Indoxyl sulfate, read-out: Activity
[5] = biological target: T1, Organic anion transporter 3 (OAT3); assay: TP_TRANSPORTER: inhibition of Indoxyl sulfate uptake (Indoxyl sulfate: 2 uM, 3,4-Dihydroxyphenylacetic acid: 1000 uM) in Xenopus laevis oocytes; format: functional, cell-based, Oocyte; parameters: scale not given: the % may be the effect or the level left; settings: probe Indoxyl sulfate, read-out: Activity
[6] = biological target: T1, Organic anion transporter 3 (OAT3); assay: TP_TRANSPORTER: inhibition of Indoxyl sulfate uptake (Indoxyl sulfate: 2 uM, ACV: 1000 uM) in Xenopus laevis oocytes; format: functional, cell-based, Oocyte; parameters: scale not given: the % may be the effect or the level left; settings: probe Indoxyl sulfate, read-out: Activity
[7] = biological target: T1, Organic anion transporter 3 (OAT3); assay: TP_TRANSPORTER: inhibition of Indoxyl sulfate uptake (Indoxyl sulfate: 2 uM, Baclofen: 1000 uM) in Xenopus laevis oocytes; format: functional, cell-based, Oocyte; parameters: scale not given: the % may be the effect or the level left; settings: probe Indoxyl sulfate, read-out: Activity
[8] = biological target: T1, Organic anion transporter 3 (OAT3); assay: TP_TRANSPORTER: inhibition of Indoxyl sulfate uptake (Indoxyl sulfate: 2 uM, Benzoic acid: 1000 uM) in Xenopus laevis oocytes; format: functional, cell-based, Oocyte; parameters: scale not given: the % may be the effect or the level left; settings: probe Indoxyl sulfate, read-out: Activity
[9] = biological target: T1, Organic anion transporter 3 (OAT3); assay: TP_TRANSPORTER: inhibition of Indoxyl sulfate uptake (Indoxyl sulfate: 2 uM, Cefazolin: 1000 uM) in Xenopus laevis oocytes; format: functional, cell-based, Oocyte; parameters: scale not given: the % may be the effect or the level left; settings: probe Indoxyl sulfate, read-out: Activity
[10] = biological target: T1, Organic anion transporter 3 (OAT3); assay: TP_TRANSPORTER: inhibition of Indoxyl sulfate uptake (Indoxyl sulfate: 2 uM, HVA: 1000 uM) in Xenopus laevis oocytes; format: functional, cell-based, Oocyte; parameters: scale not given: the % may be the effect or the level left; settings: probe Indoxyl sulfate, read-out: Activity
[11] = biological target: T1, Organic anion transporter 3 (OAT3); assay: TP_TRANSPORTER: inhibition of Indoxyl sulfate uptake (Indoxyl sulfate: 2 uM, Imidazoleacetic acid: 1000 uM) in Xenopus laevis oocytes; format: functional, cell-based, Oocyte; parameters: scale not given: the % may be the effect or the level left; settings: probe Indoxyl sulfate, read-out: Activity
[12] = biological target: T2, Organic anion transporter 3 (Rattus norvegicus, UniProt Q9R1U7); assay: TP_TRANSPORTER: inhibition of Indoxyl sulfate uptake (Indoxyl sulfate: 2 uM, Ketoprofen: 1000 uM) in Xenopus laevis oocytes; format: functional, cell-based; parameters: scale not given: the % may be the effect or the level left; settings: oocyte
T2 sequence (Q9R1U7 whole entry): T1 sequence (Q9R1U7 whole entry)

[13] = biological target: T1, Organic anion transporter 3 (OAT3); assay: TP_TRANSPORTER: inhibition of Indoxyl sulfate uptake (Indoxyl sulfate: 2 uM, Melatonin: 1000 uM) in Xenopus laevis oocytes; format: functional, cell-based, Oocyte; parameters: scale not given: the % may be the effect or the level left; settings: probe Indoxyl sulfate, read-out: Activity
[14] = biological target: T1, Organic anion transporter 3 (OAT3); assay: TP_TRANSPORTER: inhibition of Indoxyl sulfate uptake (Indoxyl sulfate: 2 uM, 6-mercaptopurine: 1000 uM) in Xenopus laevis oocytes; format: functional, cell-based, Oocyte; parameters: scale not given: the % may be the effect or the level left; settings: probe Indoxyl sulfate, read-out: Activity
[15] = biological target: T2, Organic anion transporter 3; assay: TP_TRANSPORTER: inhibition of Indoxyl sulfate uptake (Indoxyl sulfate: 2 uM, Valproic acid: 1000 uM) in Xenopus laevis oocytes; format: functional, cell-based; settings: oocyte

SMILES: COc1ccc2[nH]cc(CCO)c2c1
- activity at 1000 µM [1]: 26.8%

SMILES: COc1cc([C@@H](O)C(=O)O)ccc1O
- activity at 1000 µM [2]: 27.3%

SMILES: O=C(O)[C@H](O)c1ccc(O)c(O)c1
- activity at 1000 µM [3]: 33.5%

SMILES: O=C(O)Cc1c[nH]c2ccc(O)cc12
- activity at 1000 µM [4]: 18.7%

SMILES: O=C(O)Cc1ccc(O)c(O)c1 [3,4-DIHYDROXYPHENYLACETIC ACID]
- activity at 1000 µM [5]: 8.86%

SMILES: Nc1nc2c(ncn2COCCO)c(=O)[nH]1 [ACYCLOVIR]
- activity at 1000 µM [6]: 7.66%

SMILES: NCC(CC(=O)O)c1ccc(Cl)cc1 (stereo not given) [BACLOFEN]
- activity at 1000 µM [7]: 25.7%

SMILES: O=C(O)c1ccccc1 [BENZOIC ACID]
- activity at 1000 µM [8]: 71.6%

SMILES: Cc1nnc(SCC2=C(C(=O)O)N3C(=O)[C@@H](NC(=O)Cn4cnnn4)[C@H]3SC2)s1 [CEFAZOLIN]
- activity at 1000 µM [9]: 13.6%

SMILES: COc1cc(CC(=O)O)ccc1O [HOMOVANILLIC ACID]
- activity at 1000 µM [10]: 29.9%

SMILES: O=C(O)Cc1ncc[nH]1 [IMIDAZOLEACETIC ACID]
- activity at 1000 µM [11]: 69.4%

SMILES: CC(C(=O)O)c1cccc(C(=O)c2ccccc2)c1 (stereo not given) [KETOPROFEN]
- Activity [12]: 22.3%

SMILES: COc1ccc2[nH]cc(CCNC(C)=O)c2c1 [MELATONIN]
- activity at 1000 µM [13]: 30.9%

SMILES: Sc1ncnc2nc[nH]c12 [MERCAPTOPURINE ANHYDROUS]
- activity at 1000 µM [14]: 19.1%

SMILES: CCCC(CCC)C(=O)O [VALPROIC ACID]
- Activity [15]: is not an inhibitor [-]

— ChEMBL document CHEMBL2074014, “Role of blood-brain barrier organic anion transporter 3 (OAT3) in the efflux of indoxyl sulfate, a uremic toxin: its involvement in neurotransmitter metabolite clearance from the brain” (J Neurochem, 2002)
